According to patent US6667306B1, “Platelet ADP receptor inhibitors” (Millennium Pharmaceuticals, Inc., priority 1998, dated 2003):
Where two headings read alike, the source gives them in different places.

How the values were obtained:
[1] = system: ADP-induced human platelet aggregation; assay: Inhibition of ADP-mediated platelet aggregation in vitro (96-well microtiter assay, washed platelets); type: cell-based; conditions: for IC50: Platelet
Method: The effect of test Compounds 1-8 of, respectively, Examples 1-8 on ADP-induced human platelet aggregation was assessed in 96-well microtiter assay. Human venous blood was collected from healthy, drug-free volunteers into ACD (85 mM sodium citrate, 111 mM glucose, […] citric acid) containing PGI2 (1.25 ml ACD containing 1.6 μM PGI2/10 ml blood; PGI2 was from Sigma, St. Louis, Mo.). Platelet-rich plasma (PRP) was prepared by centrifugation at 160×g for 20 minutes at room temperature. Washed platelets were prepared by centrifuging PRP for 10 minutes at 730×g and resuspending the platelet pellet in CGS (13 mM sodium citrate, 30 mM glucose, 120 mM NaCl; 2 ml CGS/10 ml original blood volume) containing 1 U/ml apyrase (grade V, Sigma, St. Louis, Mo.). After incubation at 37° C. for 15 minutes, the platelets were collected by centrifugation at 730×g for 10 minutes and resuspended at a concentration of 3×10^8 platelets/ml in Hepes-Tyrode's buffer (10 mM Hepes; 138 mM NaCl, 5.5 mM glucose, 2.9 mM KCl, 12 mM NaHCO3, pH 7.4) containing 0.1% bovine serum albumin, 1 mM CaCl2 and 1 mM MgCl2. This platelet suspension was kept >45 minutes at 37° C. before use in aggregation assays.
Inhibition of ADP-dependent aggregation was determined in 96-well flat-bottom microtiter plates using a microtiter plate shaker and plate reader similar to the procedure described by Frantantoni et al., Am. J. Clin. Pathol. 94, 613 (1990). All steps were performed at room temperature. The total reaction volume of 0.2 ml/well included in Hepes-Tyrodes buffer/0.1% BSA: 4.5×10^7 apyrase-washed platelets, 0.5 mg/ml human fibrinogen (American Diagnostica, Inc., Greenwich, Conn.), serial dilutions of test compounds (buffer for control wells) in 0.6% DMSO. After about 5 minutes preincubation at room temperature, ADP was added to a final concentration of 2 μM which induces submaximal aggregation. Buffer was added instead of ADP to one set of control wells (ADP^−control). The OD of the samples was then determined at 490 nm using a microtiter plate reader (Softmax, Molecular Devices, Menlo Park, Calif.) resulting in the 0 minute reading. The plates were then agitated for 5 min on a microtiter plate shaker and the 5 minute reading obtained in the plate reader. Aggregation was calculated from the decrease of OD at 490 nm at t=5 minutes compared to t=0 minutes and expressed as % of the decrease in the ADP control samples corrected for changes in the unaggregated control samples.
In some experiments, 0.3 mM 8-sulphophenyltheophylline (8-SPT, Sigma, St. Louis, Mo.) was added to the reaction to block any potential adenosine receptor activity of test compounds.

platelet ADP receptors = platelet ADP receptors (Homo sapiens, UniProt Q9H244); assay: Inhibition of [^3H]2-MeS-ADP binding to platelets
Method: All steps were performed at room temperature unless indicated otherwise.

[2] = biological target: T1, human P2Y1 receptor (hP2Y1) (Homo sapiens, UniProt P47900); assay: hP2Y1 receptor activity assay (2-MeS-ADP-induced intracellular calcium mobilization in hP2Y1-JA7 Jurkat cells); type: cell-based; conditions: 10^-7 M 2-MeS-ADP, read-out: IC50 on 2-MeS-ADP-mediated intracellular calcium mobilization
T1 construct: a genomic fragment encompassing the entire open reading frame of the human P2Y1 receptor; expressed in transfected cells; host or cells: Jurkat cells, clonal line hP2Y1-JA7, vector pcINeo
Method: Therefore, hP2Y1 receptor activity of test compounds was assessed by measuring agonist-induced intracellular calcium mobilization in a mammalian cell line expressing the cloned receptor gene.
For intracellular calcium measurements, cells were collected by centrifugation, washed and resuspended in Hepes-Tyrodes buffer/0.1% BSA/1 mM CaCl2 at 10^7 cells/ml at 37° C. Fura-2AM (Molecular Probes, Eugene, Oreg.) was added to 4 μM in the presence of 0.008% Pluronic F-27 (Molecular Probes, Eugene, Oreg.) and incubation continued for 30 minutes at 37° C. in the dark with gentle agitation. Cells were collected by centrifugation and incubated for 15 minutes at 37° C. in buffer with 1 U apyrase/ml. Cells were then centrifuged and resuspended at 4° C. and 2×10^6 cells/ml. […] Calcium responses were determined for the agonist 2-MeS-ADP (2-methylthioadenosine diphosphate, trisodium salt, RBI, Natick, Ma.) at the submaximal concentration of 10^−7M in the absence and presence of various concentrations of test compounds. Maximum ratios were determined after lysis of cells with 100 μM digitonin, minimum ratios after addition of 20 mM iris and 10 mM EGTA. […] Increases in intracellular calcium levels were determined by subtraction of baseline levels from peak calcium levels.

[3] = washed human platelets, 2 μM ADP, mean of 3-12 independent experiments in duplicate, read-out: IC50 Aggregation (inhibition of ADP-dependent platelet aggregation)
[4] = Homo sapiens, units given with the value (nM to μM), read-out: IC50s of ADP-dependent aggregation of human platelets, span over the series
[5] = outdated human platelets, 1 nM [^3H]2-MeS-ADP, mean of 2-8 independent experiments in duplicate

Chain of platelet ADP receptors (Q9H244 whole entry): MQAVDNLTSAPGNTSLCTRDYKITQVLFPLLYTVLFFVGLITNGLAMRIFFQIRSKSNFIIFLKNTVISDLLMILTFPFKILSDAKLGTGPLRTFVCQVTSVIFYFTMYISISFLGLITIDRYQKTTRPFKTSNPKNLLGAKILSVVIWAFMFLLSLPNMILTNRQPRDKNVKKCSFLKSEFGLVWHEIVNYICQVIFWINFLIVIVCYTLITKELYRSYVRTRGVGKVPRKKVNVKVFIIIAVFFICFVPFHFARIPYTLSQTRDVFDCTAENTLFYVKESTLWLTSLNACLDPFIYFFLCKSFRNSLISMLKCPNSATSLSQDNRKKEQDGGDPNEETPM
T1 sequence (P47900 whole entry, the tested form may be a part): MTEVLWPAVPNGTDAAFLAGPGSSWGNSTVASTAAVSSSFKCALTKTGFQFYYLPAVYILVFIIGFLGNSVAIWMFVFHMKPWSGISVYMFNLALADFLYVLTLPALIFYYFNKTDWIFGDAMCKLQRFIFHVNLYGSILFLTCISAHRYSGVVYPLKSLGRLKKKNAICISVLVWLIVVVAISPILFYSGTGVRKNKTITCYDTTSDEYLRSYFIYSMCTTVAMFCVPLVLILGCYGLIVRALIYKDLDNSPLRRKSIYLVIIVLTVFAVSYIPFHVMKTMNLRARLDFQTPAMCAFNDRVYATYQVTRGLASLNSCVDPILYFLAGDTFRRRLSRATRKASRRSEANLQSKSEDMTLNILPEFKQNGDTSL

Compound	potency on ADP-dependent aggregation in the presence of 8-sulphophenyltheophylline ([1]; 0.3 mM 8-SPT (adenosine receptor antagonist) added)	IC50 ([1]; Homo sapiens, read-out: IC50s of ADP-dependent aggregation of human platelets, span over the series)	IC50 [1, 3]	IC50 (platelet ADP receptors)	IC50 [2]	IC50 [1, 4]	IC50 (platelet ADP receptors; [5])
CCOc1ccc2c(c1)SC1=NS(=O)(=O)C(C(=O)CS(=O)(=O)Nc3nc4ccc(OCC)cc4s3)=C(O)N12 [Compound 1, N^1-(6-Ethoxy-1,3-benzothiazol-2-yl)-2-(8-ethoxy-4-hydroxy-2,2-dioxo-2H-2l^6-benzo[4,5][1,3]thiazolo[2,3-c][1,2,4]thiadiazin-3-yl)-2-oxo-1-ethanesulfonamide]	not reduced	≥ 180 nM	180 nM	170 nM	> 100000 nM		
O=C(CS(=O)(=O)Nc1nc2ccccc2s1)C1=C(O)N2C(=NS1(=O)=O)Sc1ccccc12 [Compound 2, N^1-(1,3-benzothiazol-2-yl)-2-(4-hydroxy-2,2-dioxo-2H-2l^6-benzo[4,5][1,3]thiazolo[2,3-c][1,2,4]thiadiazin-3-yl)-2-oxo-1-ethanesulfonamide]			26000 nM			≥ 180 nM	
Cc1ccc2c(c1)SC1=NS(=O)(=O)C(C(=O)CS(=O)(=O)Nc3nc4ccc(C)cc4s3)=C(O)N12 [Compound 3, N^1-(6-Methyl-13-benzothiazol-2-yl)-2-(8-methyl-4-hydroxy-2,2-dioxo-2H-2l^6-benzo[4,5][1,3]thiazolo[2,3-c][1,2,4]thiadiazin-3-yl)-2-oxo-1-ethanesulfonamide]			9500 nM			≥ 180 nM	22000 nM
O=C(CS(=O)(=O)Nc1nc2ccc(Cl)cc2s1)C1=C(O)N2C(=NS1(=O)=O)Sc1cc(Cl)ccc12 [Compound 4, N^1-(6-Chloro-1,3-benzothiazol-2-yl)-2-(8-chloro-4-hydroxy-2,2-dioxo-2H-2l^6-benzo[4,5][1,3]thiazolo[2,3-c][1,2,4]thiadiazin-3-yl)-2-oxo-1-ethanesulfonamide]			64000 nM			≥ 180 nM	
CS(=O)(=O)c1ccc2c(c1)SC1=NS(=O)(=O)C(C(=O)CS(=O)(=O)Nc3nc4ccc(S(C)(=O)=O)cc4s3)=C(O)N12 [Compound 5, N^1-(6-Methylsulfonyl-1,3-benzothiazol-2-yl)-2-(8-methylsulfonyl-4-hydroxy-2,2-dioxo-2H-2l^6-benzo[4,5][1,3]thiazolo[2,3-c][1,2,4]thiadiazin-3-yl)-2-oxo-1-ethanesulfonamide]			700 nM			≥ 180 nM	
O=C(CS(=O)(=O)Nc1nc2ccc([N+](=O)[O-])cc2s1)C1=C(O)N2C(=NS1(=O)=O)Sc1cc([N+](=O)[O-])ccc12 [Compound 6, N^1-(6-Nitro-1,3-benzothiazol-2-yl)-2-(8-nitro-4-hydroxy-2,2-dioxo2H-2l^6-benzo[4,5][1,3]thiazolo[2,3-c][1,2,4]thiadiazin-3-yl)-2-oxo-1-ethanesulfonamide]			50000 nM			≥ 180 nM	
O=C(CS(=O)(=O)Nc1nc2ccc(F)cc2s1)C1=C(O)N2C(=NS1(=O)=O)Sc1cc(F)ccc12 [Compound 7, N^1-(6-Fluoro-1,3-benzothiazol-2-yl)-2-(8-fluoro-4-hydroxy-2,2-dioxo-2H-2l^6-benzo[4,5][1,3]thiazolo[2,3-c][1,2,4]thiadiazin-3-yl)-2-oxo-1-ethanesulfonamide]			> 120000 nM			≥ 180 nM	
COc1ccc2c(c1)SC1=NS(=O)(=O)C(C(=O)CS(=O)(=O)Nc3nc4ccc(OC)cc4s3)=C(O)N12 [Compound 8, N^1-(6-Methoxy-1,3-benzothiazol-2-yl)-2-(8-methoxy-4-hydroxy-2,2-dioxo-2H-2l^6-benzo[4,5][1,3]thiazolo[2,3-c][1,2,4]thiadiazin-3-yl)-2-oxo-1-ethanesulfonamide]			1500 nM			≥ 180 nM	800 nM
